Measured values reported in patent US11795151B2, “Benzotriazole compound” (MIYOSHI OIL & FAT CO., LTD., priority 2017, dated 2023).

Key:
Assay type in all cases: physicochemical
[1] = Evaluation of UV absorption performance (1): absorbance spectra in chloroform; details: 100 μM, 10-mm quartz cell
Protocol: Compounds 1 to 12 were diluted with 100 μM of chloroform, placed in a 10-mm quartz cell, and the absorbance spectra were measured using an ultraviolet-visible spectrophotometer (V-550, manufactured by JASCO Corporation)(FIGS. 1 to 12).
The absorption peak (maximum absorption wavelength: λmax) and absorbance in the wavelength range of 350 to 390 nm were read from the absorption spectra of Compounds 1 to 12, and the molar extinction coefficient of the peak (maximum molar extinction coefficient: εmax) was obtained by the following equation (able 1). Molar extinction coefficient:εmax(L/(mol·cm))=A:Absorbance/[c:Mol concentration(mol/L)×1:Cell optical length(cm)] [Equation 1]
In addition, from the absorption spectra of Compounds 1 to 12, assuming that an intersection of a long-wavelength side absorption spectrum in the absorption peak at 350 to 390 nm and a baseline (a line where the slope of the absorption spectrum at 380 to 500 nm is zero) is set as a […] (for example: FIG. 1), the absolute value of the slope of the absorption peak on the long-wavelength side in the wavelength region at 350 to 390 nm was obtained by the following equation: |Slope of absorption peak on long wavelength side in wavelength region of 350 to 390 nm|=|(Absorbance at peak end−Absorbance at absorption peak in wavelength region of 350 to 390 nm)/(Absorption wavelength at peak end−Wave length at absorption peak in wavelength region of 350 to 390 nm)| [Equation 2]

[2] = Maximum solubility in various monomers; details: room temperature (20 to 30° C.), 4 hours
[3] = Evaluation of UV absorption performance (2): absorbance spectra in chloroform; details: 100 μM, 10-mm quartz cell
Protocol: Compounds 11 to 28 were diluted with 100 μM of chloroform and placed in a 10-mm quartz cell, and the absorbance spectra were measured using an ultraviolet-visible spectrophotometer (V-550, manufactured by JASCO Corporation)(FIGS. 11,12,14 to 29).
The absorption peak (maximum absorption wavelength: max) and absorbance in the wavelength range of 350 to 390 nm were read from the absorption spectra of Compounds 11 to 28, and a molar extinction coefficient (maximum molar extinction coefficient: εmax) of the peak was obtained by the following formula (Table 7): Molar extinction coefficient:εmax(L/(mol·cm))=A:Absorbance/[c:Mol concentration(mol/L)×1:Cell optical length(cm)] [Equation 3]
In addition, from the absorption spectra of Compounds 11 to 28, assuming that an intersection of a long-wavelength side absorption spectrum in the absorption peak at 350 to 390 nm and a baseline (a line where the slope of the absorption spectrum at […] is zero) is set as a peak end (for example: FIG. 1), the absolute value of the slope of the absorption peak on the long-wavelength side in the wavelength region at 350 to 390 nm was obtained by the following equation (Table 8): |Slope of absorption peak on long wavelength side in wavelength region of 350 to 390n|=|(Absorbance at peak end−Absorbance at absorption peak in wavelength region of 350 to 390 nm)/(Absorption wavelength at peak end−Wave length at absorption peak in wavelength region of 350 to 390 nm)| [Equation 4]

Absorbance at absorption peak in wavelength region of 350 to 390 nm [1]	Absorbance at peak end [1]	Absorption wavelength at peak end [1] [nm]	Molar extinction coefficient at peak (maximum molar extinction coefficient: εmax) [1] [L/mol/cm]	Wave length at absorption peak in wavelength region of 350 to 390 nm (maximum absorption wavelength: λmax) [1] [nm]	Maximum solubility ([2]; Dimethylacrylamide) [wt %]	Maximum solubility ([2]; Hexadiene) [wt %]	Maximum solubility ([2]; Methyl (meth)acrylate) [wt %]	Maximum solubility ([2]; Styrene) [wt %]	Maximum solubility ([2]; Vinyl acetate) [wt %]	Absorbance at absoprtion peak in wavelength region of 350 to 390 nm [3]	Absorbance at peak end [3]	Absorption wavelength at peak end [3] [nm]	Molar extinction coefficient at peak (maximum molar extinction coefficient: εmax) [3] [L/mol/cm]	Wave length at absorption peak in wavelength region of 350 to 390 nm (maximum absorption wavelength: λmax) [3] [nm]	SMILES
2.29	0.01022	422	21800	367	15	5	15	25	13						C=C(C)C(=O)Oc1ccc(Sc2ccc3nn(-c4cc(C)cc(C(C)(C)C)c4O)nc3c2)cc1 [Compound 5]
2.27	0.01184	424	21600	369	15	10	20	25	15						C=C(C)C(=O)OCCCCCCOc1ccc(Sc2ccc3nn(-c4cc(C)cc(C(C)(C)C)c4O)nc3c2)cc1 [Compound 6]
2.14	0.00702	422	21100	368											CCCCCCCCCCCCC/C=C/C(=O)OCCCCCCSc1ccc2nn(-c3cc(C)cc(C(C)(C)C)c3O)nc2c1 [Compound 9]
										2.22	0.0302	419	22200	365	CC(=O)OCCSc1ccc2nn(-c3cc(C)cc(C(C)(C)C)c3O)nc2c1 [Compound 13]
										2.21	0.02594	419	22100	365	Cc1cc(-n2nc3ccc(SCCOC(=O)c4ccccc4)cc3n2)c(O)c(C(C)(C)C)c1 [Compound 14]
										2.22	0.01846	420	22200	367	CCCCCCCCCCCCCCCCCC(=O)OCCCCCCSc1ccc2nn(-c3cc(C)cc(C(C)(C)C)c3O)nc2c1 [Compound 16]
										2.24	0.01899	422	22400	366	CC(=O)Oc1ccc(Sc2ccc3nn(-c4cc(C)cc(C(C)(C)C)c4O)nc3c2)cc1 [Compound 17]
										2.22	0.02575	420	22200	366	CCCCCCCCCCCCCCCCCC(=O)Oc1ccc(Sc2ccc3nn(-c4cc(C)cc(C(C)(C)C)c4O)nc3c2)cc1 [Compound 18]
										2.29	0.02244	422	22900	366	Cc1cc(-n2nc3ccc(Sc4ccc(OC(=O)c5ccccc5)cc4)cc3n2)c(O)c(C(C)(C)C)c1 [Compound 19]
										2.20	0.00489	423	22000	368	CCCCCCCCCCCCCCCCCCNC(=O)OCCCCCCSc1ccc2nn(-c3cc(C)cc(C(C)(C)C)c3O)nc2c1 [Compound 20]
										2.24	0.00955	424	22400	369	CC(=O)Nc1ccc(Sc2ccc3nn(-c4cc(C)cc(C(C)(C)C)c4O)nc3c2)cc1 [Compound 21]
										2.23	0.01382	424	22300	369	CCCCCCCCCCCCCCCCCC(=O)Nc1ccc(Sc2ccc3nn(-c4cc(C)cc(C(C)(C)C)c4O)nc3c2)cc1 [Compound 22]
										2.34	0.01418	424	23400	369	Cc1cc(-n2nc3ccc(Sc4ccc(NC(=O)c5ccccc5)cc4)cc3n2)c(O)c(C(C)(C)C)c1 [Compound 23]
										2.36	0.02	424	23600	368	Cc1cc(-n2nc3ccc(Sc4ccc(NC(=O)c5ccc6ccccc6c5)cc4)cc3n2)c(O)c(C(C)(C)C)c1 [Compound 24]
										2.27	0.0174	424	22700	370	CCNC(=O)Nc1ccc(Sc2ccc3nn(-c4cc(C)cc(C(C)(C)C)c4O)nc3c2)cc1 [Compound 25]
										2.17	0.1501	419	21700	368	CCCCCCCCCCCCCCCCCCNC(=O)Nc1ccc(Sc2ccc3nn(-c4cc(C)cc(C(C)(C)C)c4O)nc3c2)cc1 [Compound 26]
										2.39	0.01868	425	23900	369	Cc1cc(-n2nc3ccc(Sc4ccc(NC(=O)Nc5ccccc5)cc4)cc3n2)c(O)c(C(C)(C)C)c1 [Compound 27]
										2.26	0.01853	423	22600	370	COc1ccc(NC(=O)Nc2ccc(Sc3ccc4nn(-c5cc(C)cc(C(C)(C)C)c5O)nc4c3)cc2)cc1 [Compound 28]
